# Assay results: US20060069132A1, “Azolecarboxamide herbicides” (priority 2004, published 2006)
# Key:
# [1] = tested on: small flower umbrella sedge; test: Test B flooded paddy test; type: in vivo, Cyperus difformis; conditions: scale 0 to 100 (0 no effect, 100 complete control)
# Outline: (§1)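 Scale 0–100: zero equals no visible effect, 100 complete control, judged by eye relative to controls. Timing: 13 to 15 days in greenhouse post-treatment. Growth stage at spraying: two leaves (paddy) or one to four leaves, 2–18 cm (postemergence).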
# morningglory = test: Test B pre-/postemergence herbicide test; type: in vivo, Ipomoea coccinea
# Outline: (§2)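 Formulation: non-phytotoxic solvent mix with surfactant. Timing: preemergence on seed and postemergence on 2–18 cm plants, applied concurrently. Readout after 13–15 d greenhouse: visual 0–100 control rating against controls.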
# Surinam grass = test: Test B pre-/postemergence herbicide test; type: in vivo, Urochloa decumbens
# Outline: (§3)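 Flooded paddy rice and barnyardgrass were treated at the 2-leaf stage; upland plantings received compound either on sown seed or on 1- to 4-leaf seedlings. All were kept 13–15 days in a greenhouse and scored visually, 0–100, relative to untreated plants.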
# cocklebur = test: Test B pre-/postemergence herbicide test; type: in vivo, Xanthium strumarium
# Outline: as §2
# ducksalad = test: Test B flooded paddy test; type: in vivo, Heteranthera limosa; conditions: scale 0 to 100 (0 no effect, 100 complete control)
# Outline: as §1
# lambsquarters = test: Test B pre-/postemergence herbicide test; type: in vivo, Chenopodium album
# Outline: as §3
# rice = test: Test B flooded paddy test; type: in vivo, Oryza sativa; conditions: scale 0 to 100 (0 no effect, 100 complete control)
# Outline: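 After treating 2-leaf paddy plants or 2–18 cm postemergence plants (1 to 4 leaves) with formulated chemical, researchers kept them in a greenhouse for 13–15 days. Effects were judged visually versus controls: 0 indicates none, 100 total control.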
# velvetleaf = test: Test B pre-/postemergence herbicide test; type: in vivo, Abutilon theophrasti
# Outline: as §3
# blackgrass = test: Test B postemergence herbicide test; type: in vivo, Alopecurus myosuroides
# Outline: as §1
# wild oat = test: Test B postemergence herbicide test; type: in vivo, Avena fatua
# Outline: as §1
# wheat = test: Test B postemergence herbicide test; type: in vivo, Triticum aestivum; design: key to Wheat plant response rating: 0 = no effect, 100 = complete control
# Outline: as §1
# corn = test: Test B pre-/postemergence herbicide test; type: in vivo, Zea mays
# Outline: as §3
# barnyardgrass [2] = test: Test B flooded paddy test; type: in vivo, Echinochloa crus-galli; conditions: scale 0 to 100 (0 no effect, 100 complete control)
# Outline: as §1
# pigweed = test: Test B pre-/postemergence herbicide test; type: in vivo, Amaranthus retroflexus
# Outline: as §3
# giant foxtail = test: Test B pre-/postemergence herbicide test; type: in vivo, Setaria faberi
# Outline: as §3
# large crabgrass = test: Test B pre-/postemergence herbicide test; type: in vivo, Digitaria sanguinalis
# Outline: as §3
# barnyardgrass [3] = test: Test B pre-/postemergence herbicide test; type: in vivo, Echinochloa crus-galli
# Outline: as §2
# [4] = Postemergence, 500 g ai/ha, scale 0 (no effect) to 100 (complete control)
# [5] = postemergence, 125 g ai/ha, scale 0 to 100
# [6] = 500 g ai/ha, scale 0 to 100, 0 no effect, 100 complete control, preemergence
# [7] = 125 g ai/ha, 0 is no effect, 100 is complete control, preemergence
# [8] = 125 g ai/ha, visual rating, scale 0 (no effect) to 100 (complete control), postemergence
# [9] = postemergence, 500 g ai/ha, scale 0 to 100, 0 is no effect, 100 is complete control
# [10] = 1000 g ai/ha, visual rating, 13 to 15 days
# [11] = Postemergence, 250 g ai/ha, scale 0 (no effect) to 100 (complete control)
# [12] = postemergence, 62 g ai/ha, scale 0 to 100
compound,measurement,setting,value
C=CCN(CC=C)C(=O)c1cccc(NC(=O)c2nn(C(C)(C)C)nc2C)n1 [Compound 439],"Sedge, Umbrella plant response rating",[1]; 125 g ai/ha,0
same,Morningglory plant response rating,morningglory; [4],30
same,Morningglory plant response rating,morningglory; [5],0
same,Surinam Grass plant response rating,Surinam grass; [4],0
same,Surinam Grass plant response rating,Surinam grass; [5],0
same,Cocklebur plant response rating,cocklebur; [4],0
same,Cocklebur plant response rating,cocklebur; [5],0
same,Ducksalad plant response rating,ducksalad; 125 g ai/ha,0
same,Lambsquarters plant response rating,lambsquarters; [4],0
same,Lambsquarters plant response rating,lambsquarters; [5],0
same,Rice plant response rating,rice; 125 g ai/ha,0
same,Velvetleaf plant response rating,velvetleaf; [4],0
same,Velvetleaf plant response rating,velvetleaf; [5],0
same,Blackgrass plant response rating,blackgrass; [4],10
same,Blackgrass plant response rating,blackgrass; [5],0
same,"Oat, Wild plant response rating",wild oat; [4],10
same,"Oat, Wild plant response rating",wild oat; [5],0
same,Wheat plant response rating,wheat; [6],0
same,Wheat plant response rating,wheat; [4],10
same,Wheat plant response rating,wheat; [5],0
same,Corn plant response rating,corn; [4],0
same,Corn plant response rating,corn; [5],0
same,Barnyardgrass plant response rating,barnyardgrass [2]; 125 g ai/ha,0
same,Pigweed plant response rating,pigweed; [4],10
same,Pigweed plant response rating,pigweed; [5],0
same,"Foxtail, Giant plant response rating",giant foxtail; [4],0
same,"Foxtail, Giant plant response rating",giant foxtail; [5],0
same,"Crabgrass, Large plant response rating",large crabgrass; [4],0
same,"Crabgrass, Large plant response rating",large crabgrass; [5],0
same,Barnyardgrass plant response rating,"barnyardgrass [3]; Postemergence, 125 g ai/ha, scale 0 (no effect) to 100 (complete control)",0
same,Barnyardgrass plant response rating,barnyardgrass [3]; [4],0
C=CCN(CC=C)C(=O)c1ccc(F)c(NC(=O)c2nn(C(C)(C)C)nc2CC)c1 [Compound 387],"Sedge, Umbrella plant response rating",[1]; 1000 g ai/ha,0
same,"Plant response rating (0 to 100 scale), Morningglory",morningglory; [7],0
same,Morningglory plant response rating,morningglory; [8],0
same,Morningglory plant response rating,morningglory; [4],10
same,"Plant response rating (0 to 100 scale), Surinam Grass",Surinam grass; [7],0
same,Surinam Grass plant response rating,Surinam grass; [8],0
same,Surinam Grass plant response rating,Surinam grass; [4],0
same,"Plant response rating (0 to 100 scale), Cocklebur",cocklebur; [7],0
same,Cocklebur plant response rating,cocklebur; [8],0
same,Cocklebur plant response rating,cocklebur; [9],20
same,Ducksalad plant response rating,ducksalad; 1000 g ai/ha,0
same,"Plant response rating (0 to 100 scale), Lambsquarters",lambsquarters; [7],0
same,Lambsquarters plant response rating,lambsquarters; [8],20
same,Lambsquarters plant response rating,lambsquarters; [4],20
same,Rice plant response rating,rice; 1000 g ai/ha,0
same,"Plant response rating (0 to 100 scale), Velvetleaf",velvetleaf; [7],0
same,Velvetleaf plant response rating,velvetleaf; [8],0
same,Velvetleaf plant response rating,velvetleaf; [4],10
same,Blackgrass plant response rating,blackgrass; [8],0
same,Blackgrass plant response rating,blackgrass; [9],20
same,"Oat, Wild plant response rating",wild oat; [8],0
same,"Oat, Wild plant response rating",wild oat; [4],30
same,Wheat plant response rating,wheat; [8],0
same,Wheat plant response rating,wheat; [6],0
same,Wheat plant response rating,wheat; [4],10
same,"Plant response rating (0 to 100 scale), Corn",corn; [7],0
same,Corn plant response rating,corn; [8],0
same,Corn plant response rating,corn; [9],0
same,Barnyardgrass plant response rating,barnyardgrass [2]; 1000 g ai/ha,0
same,"Plant response rating (0 to 100 scale), Pigweed",pigweed; [7],0
same,Pigweed plant response rating,pigweed; [8],20
same,Pigweed plant response rating,pigweed; [4],40
same,"Plant response rating (0 to 100 scale), Foxtail, Giant",giant foxtail; [7],0
same,"Foxtail, Giant plant response rating",giant foxtail; [8],0
same,"Foxtail, Giant plant response rating",giant foxtail; [9],20
same,"Plant response rating (0 to 100 scale), Crabgrass, Large",large crabgrass; [7],0
same,"Crabgrass, Large plant response rating",large crabgrass; [8],0
same,"Crabgrass, Large plant response rating",large crabgrass; [9],0
same,"Plant response rating (0 to 100 scale), Barnyardgrass",barnyardgrass [3]; [7],0
same,Barnyardgrass plant response rating,barnyardgrass [3]; [8],0
same,Barnyardgrass plant response rating,barnyardgrass [3]; [9],0
CCOC(=O)c1ccc(F)c(NC(=O)c2cc(CC(C)C)nn2CC)c1 [Compound 72],"Sedge, Umbrella plant response rating",[1]; [10],0
same,Morningglory plant response rating,morningglory; [11],0
same,Morningglory plant response rating,morningglory; [12],0
same,Surinam Grass plant response rating,Surinam grass; [11],0
same,Surinam Grass plant response rating,Surinam grass; [12],0
same,Cocklebur plant response rating,cocklebur; [11],0
same,Cocklebur plant response rating,cocklebur; [12],0
same,Ducksalad plant response rating,ducksalad; [10],0
same,Lambsquarters plant response rating,lambsquarters; [11],10
same,Lambsquarters plant response rating,lambsquarters; [12],0
same,Rice plant response rating,rice; [10],0
same,Velvetleaf plant response rating,velvetleaf; [11],0
same,Velvetleaf plant response rating,velvetleaf; [12],0
same,Blackgrass plant response rating,blackgrass; [11],50
same,Blackgrass plant response rating,blackgrass; [12],40
same,"Oat, Wild plant response rating",wild oat; [11],30
same,"Oat, Wild plant response rating",wild oat; [12],20
same,Wheat plant response rating,"wheat; 250 g ai/ha, scale 0 to 100, 0 no effect, 100 complete control, preemergence",0
same,Wheat plant response rating,wheat; [11],10
same,Wheat plant response rating,wheat; [12],10
same,Corn plant response rating,corn; [11],0
same,Corn plant response rating,corn; [12],0
same,Barnyardgrass plant response rating,barnyardgrass [2]; [10],0
same,Pigweed plant response rating,pigweed; [11],0
same,Pigweed plant response rating,pigweed; [12],0
same,"Foxtail, Giant plant response rating",giant foxtail; [11],0
same,"Foxtail, Giant plant response rating",giant foxtail; [12],0
same,"Crabgrass, Large plant response rating",large crabgrass; [11],0
same,"Crabgrass, Large plant response rating",large crabgrass; [12],0
same,Barnyardgrass plant response rating,barnyardgrass [3]; [11],0
same,Barnyardgrass plant response rating,barnyardgrass [3]; [12],0
